Results from patent US4684664A, “Derivatives of β-(4-isocyano-1,2,3,4-diepoxycyclopentyl) acrylic acid” (Kureha Kagaku Kogyo Kabushiki Kaisha, priority 1984, dated 1987).
Converted amounts (≈) assume the structure as drawn.

Columns and labels:
Format in all cases: cell-based
[1] = system: Bacillus subtilis ATCC 6633; assay: Antibacterial activity, agar-dilution MIC, organism No. 14
How it was run: (§1)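 Minimum inhibitory concentration determined on solid bouillon agar by the agar-dilution technique, with values stated as μg/ml.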

[2] = system: Streptococcus faecium IFO 3826; assay: Antibacterial activity, agar-dilution MIC, organism No. 27
How it was run: as §1

[3] = system: Salmonella typhimurium IID 971; assay: Antibacterial activity, agar-dilution MIC, organism No. 8
How it was run: as §1

[4] = system: Salmonella shottmuelleri 8006; assay: Antibacterial activity, agar-dilution MIC, organism No. 11
How it was run: as §1

[5] = system: Pseudomonas aeruginosa IFO 3445; assay: Antibacterial activity, agar-dilution MIC, organism No. 15
How it was run: as §1

[6] = system: Proteus rettgeri IFO 3850; assay: Antibacterial activity, agar-dilution MIC, organism No. 22
How it was run: as §1

[7] = system: Salmonella paratyphi-A 1015; assay: Antibacterial activity, agar-dilution MIC, organism No. 10
How it was run: as §1

[8] = system: Serratia marcescens IAM 1184; assay: Antibacterial activity, agar-dilution MIC, organism No. 13
Source text: Agar-dilution method was used for determination of the antibacterial activity and antifungal activity while using bouillon-agar culture medium, and the minimum inhibitory concentration of the specimen was expressed by μg/ml of the culture medium.

[9] = system: Candida albicans IAM 4905; assay: Antifungal activity, agar-dilution MIC, organism No. 29
How it was run: as §1

[10] = system: Proteus vulgaris HX-19; assay: Antibacterial activity, agar-dilution MIC, organism No. 21
How it was run: as §1

[11] = system: Aspergillus niger IFO 6342; assay: Antifungal activity, agar-dilution MIC, organism No. 30
How it was run: as §1

[12] = system: Proteus morganii IFO 3848; assay: Antibacterial activity, agar-dilution MIC, organism No. 18
How it was run: as §1

[13] = system: Klebsiella pneumoniae PCI-602; assay: Antibacterial activity, agar-dilution MIC, organism No. 7
How it was run: as §1

[14] = system: Proteus mirabilis IFO 3849; assay: Antibacterial activity, agar-dilution MIC, organism No. 19
How it was run: as §1

[15] = system: Staphylococcus aureus FDA 209PJc-1; assay: Antibacterial activity, agar-dilution MIC, organism No. 1
How it was run: as §1

[16] = system: Pseudomonas aeruginosa NCTC 10490; assay: Antibacterial activity, agar-dilution MIC, organism No. 16
How it was run: as §1

[17] = system: Salmonella enteritidis G 14; assay: Antibacterial activity, agar-dilution MIC, organism No. 12
How it was run: as §1

[18] = system: Streptococcus pyogenes Cook; assay: Antibacterial activity, agar-dilution MIC, organism No. 4
How it was run: as §1

[19] = system: Proteus vulgaris OX-19; assay: Antibacterial activity, agar-dilution MIC, organism No. 20
How it was run: as §1

[20] = system: Escherichia coli K12 C600 IAM 1264; assay: Antibacterial activity, agar-dilution MIC, organism No. 6
How it was run: as §1

[21] = system: Micrococcus luteus ATCC 9341; assay: Antibacterial activity, agar-dilution MIC, organism No. 25
How it was run: as §1

[22] = system: Enterobacter aerogenes ATCC 13048; assay: Antibacterial activity, agar-dilution MIC, organism No. 23
How it was run: as §1

[23] = system: Salmonella typhi 901; assay: Antibacterial activity, agar-dilution MIC, organism No. 9
How it was run: as §1

[24] = system: Enterobacter cloacae 963; assay: Antibacterial activity, agar-dilution MIC, organism No. 24
How it was run: as §1

[25] = system: Staphylococcus aureus Terajima; assay: Antibacterial activity, agar-dilution MIC, organism No. 2
How it was run: as §1

[26] = system: Staphylococcus aureus MS 353; assay: Antibacterial activity, agar-dilution MIC, organism No. 3
How it was run: as §1

[27] = system: Escherichia coli NIHJ-JC-2; assay: Antibacterial activity, agar-dilution MIC, organism No. 5
How it was run: as §1

[28] = system: Pseudomonas aeruginosa PAO 1; assay: Antibacterial activity, agar-dilution MIC, organism No. 17
How it was run: as §1

[29] = system: Streptococcus pyogenes IFO 3340; assay: Antibacterial activity, agar-dilution MIC, organism No. 26
How it was run: as §1

## [C-]#[N+]C12CC3(/C=C/C(=O)Nc4nc[nH]n4)OC3C1O2 (stereo not shown) [compound 78]
[1]; Bacillus subtilis, ATCC6633, read-out: Minimum Inhibitory Concentration
  MIC: 100 mg/L (≈ 386 µM)
[2]; Enterococcus faecium, IFO3826, read-out: Minimum Inhibitory Concentration
  MIC: 200 mg/L (≈ 772 µM)
[3]; Salmonella enterica, read-out: Minimum Inhibitory Concentration
  MIC: 100 mg/L (≈ 386 µM)
[4]; Salmonella, 8006, read-out: Minimum Inhibitory Concentration
  MIC: 50 mg/L (≈ 193 µM)
[5]; Pseudomonas aeruginosa, IFO3445, read-out: Minimum Inhibitory Concentration
  MIC: > 200 mg/L
[6]; Providencia rettgeri, IFO3850, read-out: Minimum Inhibitory Concentration
  MIC: 200 mg/L (≈ 772 µM)
[7]; Salmonella enterica, PARATYPHI, read-out: Minimum Inhibitory Concentration
  MIC: 50 mg/L (≈ 193 µM)
[8]; Serratia marcescens, IAM1184, read-out: Minimum Inhibitory Concentration
  MIC: > 200 mg/L
[9]; Candida albicans, IAM4905, read-out: Minimum Inhibitory Concentration
  MIC: > 200 mg/L
[10]; Proteus vulgaris, HX19, read-out: Minimum Inhibitory Concentration
  MIC: 50 mg/L (≈ 193 µM)
[11]; Aspergillus niger, IFO6342, read-out: Minimum Inhibitory Concentration
  MIC: 200 mg/L (≈ 772 µM)
[12]; Morganella morganii, IFO3848, read-out: Minimum Inhibitory Concentration
  MIC: 50 mg/L (≈ 193 µM)
[13]; Klebsiella pneumoniae, PCI602, read-out: Minimum Inhibitory Concentration
  MIC: 200 mg/L (≈ 772 µM)
[14]; Proteus mirabilis, IFO3849, read-out: Minimum Inhibitory Concentration
  MIC: 200 mg/L (≈ 772 µM)
[15]; Staphylococcus aureus, FDA209PJC1, read-out: Minimum Inhibitory Concentration
  MIC: 50 mg/L (≈ 193 µM)
[16]; Pseudomonas aeruginosa, NCTC10490, read-out: Minimum Inhibitory Concentration
  MIC: > 200 mg/L
[17]; Salmonella enterica, ENTERITIDIS, read-out: Minimum Inhibitory Concentration
  MIC: 50 mg/L (≈ 193 µM)
[18]; Streptococcus pyogenes, read-out: Minimum Inhibitory Concentration
  MIC: 100 mg/L (≈ 386 µM)
[19]; Proteus vulgaris, OX19, read-out: Minimum Inhibitory Concentration
  MIC: 50 mg/L (≈ 193 µM)
[20]; Escherichia coli, IAM1264, read-out: Minimum Inhibitory Concentration
  MIC: 100 mg/L (≈ 386 µM)
[21]; Micrococcus luteus, ATCC9341, read-out: Minimum Inhibitory Concentration
  MIC: 100 mg/L (≈ 386 µM)
[22]; Klebsiella aerogenes, ATCC13048, read-out: Minimum Inhibitory Concentration
  MIC: > 200 mg/L
[23]; Salmonella enterica, TYPHI, read-out: Minimum Inhibitory Concentration
  MIC: 25 mg/L (≈ 96.4 µM)
[24]; Enterobacter cloacae, 963, read-out: Minimum Inhibitory Concentration
  MIC: > 200 mg/L
[25]; Staphylococcus aureus, read-out: Minimum Inhibitory Concentration
  MIC: 200 mg/L (≈ 772 µM)
[26]; Staphylococcus aureus, MS353, read-out: Minimum Inhibitory Concentration
  MIC: 50 mg/L (≈ 193 µM)
[27]; Escherichia coli, NIHJJC2, read-out: Minimum Inhibitory Concentration
  MIC: 100 mg/L (≈ 386 µM)
[28]; Pseudomonas aeruginosa, PAO1, read-out: Minimum Inhibitory Concentration
  MIC: > 200 mg/L
[29]; Streptococcus pyogenes, IFO3340, read-out: Minimum Inhibitory Concentration
  MIC: 100 mg/L (≈ 386 µM)

## [C-]#[N+]C12CC3(/C=C/C(=O)NC4OC(COC(C)=O)C(OC(C)=O)C(OC(C)=O)C4OC(C)=O)OC3C1O2 (stereo not shown) [compound 69]
[1]; Organism No. 14, bouillon-agar
  Minimum Inhibitory Concentration: > 200 µg/mL
[2]; Organism No. 27, bouillon-agar
  Minimum Inhibitory Concentration: > 200 µg/mL
[3]; Organism No. 8, bouillon-agar
  Minimum Inhibitory Concentration: > 200 µg/mL
[4]; Organism No. 11, bouillon-agar
  Minimum Inhibitory Concentration: > 200 µg/mL
[5]; Organism No. 15, bouillon-agar
  Minimum Inhibitory Concentration: > 200 µg/mL
[6]; Organism No. 22, bouillon-agar
  Minimum Inhibitory Concentration: > 200 µg/mL
[7]; Organism No. 10, bouillon-agar
  Minimum Inhibitory Concentration: 200 µg/mL
[8]; Organism No. 13, bouillon-agar
  Minimum Inhibitory Concentration: > 200 µg/mL
[9]; Organism No. 29, bouillon-agar
  Minimum Inhibitory Concentration: 100 µg/mL
[10]; Organism No. 21, bouillon-agar
  Minimum Inhibitory Concentration: > 200 µg/mL
[11]; Organism No. 30, bouillon-agar
  Minimum Inhibitory Concentration: 100 µg/mL
[12]; Organism No. 18, bouillon-agar
  Minimum Inhibitory Concentration: > 200 µg/mL
[13]; Organism No. 7, bouillon-agar
  Minimum Inhibitory Concentration: > 200 µg/mL
[14]; Organism No. 19, bouillon-agar
  Minimum Inhibitory Concentration: > 200 µg/mL
[15]; Organism No. 1, bouillon-agar
  Minimum Inhibitory Concentration: 100 µg/mL
[16]; Organism No. 16, bouillon-agar
  Minimum Inhibitory Concentration: > 200 µg/mL
[17]; Organism No. 12, bouillon-agar
  Minimum Inhibitory Concentration: > 200 µg/mL
[18]; Organism No. 4, bouillon-agar
  Minimum Inhibitory Concentration: > 200 µg/mL
[19]; Organism No. 20, bouillon-agar
  Minimum Inhibitory Concentration: > 200 µg/mL
[20]; Organism No. 6, bouillon-agar
  Minimum Inhibitory Concentration: > 200 µg/mL
[21]; Organism No. 25, bouillon-agar
  Minimum Inhibitory Concentration: 100 µg/mL
[22]; Organism No. 23, bouillon-agar
  Minimum Inhibitory Concentration: > 200 µg/mL
[23]; Organism No. 9, bouillon-agar
  Minimum Inhibitory Concentration: > 200 µg/mL
[24]; Organism No. 24, bouillon-agar
  Minimum Inhibitory Concentration: > 200 µg/mL
[25]; Organism No. 2, bouillon-agar
  Minimum Inhibitory Concentration: > 200 µg/mL
[26]; Organism No. 3, bouillon-agar
  Minimum Inhibitory Concentration: 100 µg/mL
[27]; Organism No. 5, bouillon-agar
  Minimum Inhibitory Concentration: > 200 µg/mL
[28]; Organism No. 17, bouillon-agar
  Minimum Inhibitory Concentration: > 200 µg/mL
[29]; Organism No. 26, bouillon-agar
  Minimum Inhibitory Concentration: 50 µg/mL
